Results: patent US20160375042A1, “USE OF CAMPTOTHECIN DERIVATIVE IN PREPARING PHARMACEUTICAL USED FOR TREATING MULTIPLE MYELOMA” (priority 2014, published 2016)
Values joined by “and” are separate entries in the source; they are usually repeats but may differ in a detail not shown here. Identical values can stand only once.

Tests used:
[1] = Water-solubility test of compounds of Formula II and Formula IV; format: physicochemical; settings: the C-20 phosphite salt (Formula II) itself, read-out: Water-solubility of Comp of Formula II
[2] = test system: S1 and S1-M1-80 (characteristic expression of ABCG2/BCRP); experiment: Anti-drug resistance test (MTT, resistance index); format: cell-based; settings: S1-M1-80 (ABCG2/BCRP) versus S1 cells, 72 h, from IC50
Protocol: Logarithmic growth phase S1 and S1-M1-80 (characteristic expression of ABCG2/BCRP) were prepared as cell suspension of 2.5×10^4 cells/ml and 6×10^4 cells/ml, and were seeded in into 96-well plates with 0.19 ml/well. After incubating in cell incubator for 24 hours at 37° C., 5% CO2, sample solutions in various concentrations were added at 0.01 ml/well. Stroke-physiological saline solution is used as control well. Each treatment is conducted in 3 parallel wells. The drugs were added and incubated additional 72 h hours. And 5 mg/ml of MTT is added at 0.02 ml/well before four hours of the end the incubation. The culture liquid is removed at the end of incubation. Each well was added 0.1 ml of DMSO and OD values were measured at wavelength of 540 nm and reference wavelength of 655 nm. The experiment was repeated three times. Equation 1 is used to calculate cell growth inhibition rate (IR); and Equation 2 is used to calculate resistance index. Bliss method is used to calculate the 50% inhibitory concentration (IC50).

[3] = Plasma concentration of WQ1001 (HM 910) and its metabolite CPT in rats after intravenous injection; format: in vivo; settings: for HM 910 Plasma / HM 910 Plasma (ng/mL): individual rats 1-6
Protocol: Intravenous administration in rats: six healthy SD rats, weighing 180˜220 g, three males and three females. Fasting for 12 h before dosing, free access to water. 20 mg/kg of HM 910 was administrated by intravenous bolus injection though caudal vein of the rats, with dose-volume volume of 1.0 mL/kg. Blooding 0.25 mL from the animal through the jugular vein, anti-clotting with heparin sodium, adding 0.2% formic acid within the anticoagulant. Blooding at following time points: 5 min, 15 min, 30 min, 45 min, 1 h, 1.5 h, 2 h, 2.5 h, 3 h, 4 h before and after administration. Blood samples were placed on ice after blooding and the plasma was centrifugal separated within 30 minutes (centrifugation conditions: 8000 r/min, 6 minutes, room temperature). The plasma collected was stored at −80° C. for analysis.

[4] = test system: human multiple myeloma cells NCI-H929 xenografts; experiment: Tumor inhibitory effect on multiple myeloma cells NCI-H929 xenografts in nude mice; format: in vivo, BALB/c nude mouse; settings: for IR By RTV % / IR By TW % / RTV (X ± SD) / TW (X ± SD, g) / Bw (X ± SD, g) end / TV (X ± SD, mm^3) End / Bw (X ± SD, g) initial / TV (X ± SD, mm^3) initial: once every 4 days, intraperitoneal; for IR By RTV % / IR By TW % / RTV (X ± SD) / TW (X ± SD, g): 11th day; for Bw (X ± SD, g) end / TV (X ± SD, mm^3) End: end (11th day after inoculation)
Protocol: Multiple myeloma cells were routinely passaged in vitro, inoculated in 40 6-7-week-old BALB/c nude mouse, each mouse was subcutaneously injected human multiple myeloma cells NCI-H929 at its right axillary. Weighed after two days. The mice were randomly divided into five groups, eight in each group. Each group was dosed as follows: • i. physiological saline control group • ii. Topotecan positive control group, 2 mg/kg, once every 4 days, intraperitoneal injection • iii. WQ1001, high-dose group, 35 mg/kg, once every 4 days, intraperitoneal injection • iv. WQ1001, middle dose group, 25 mg/kg, once every 4 days, intraperitoneal injectionv. v. WQ1001, low dose group, 18 mg/kg, once every 4 days, intraperitoneal injection
Body weight(BW) as well as long diameter and short diameter of tumors were measured every two days. Tumor volume was calculated according to the Equation 1. On the 11th day after inoculation, the mice were weighed, long diameter and short diameter of tumors were measured, and relative tumor volume (RTV) was calculated according to Equation 2. Mice were sacrificed by cervical dislocation and the tumor mass was stripped and weighed. Inhibition rate (IR) was calculated according to the Equation 3. RTV and tumor weight (TW) for each group were analyzed through T-test.

[5] = SD rats, 20 mg/kg HM 910 i.v. bolus, 2.5 hr, 20 mg/kg

## CC[C@@]1(O[PH](=O)[O-])C(=O)OCc2c1cc1n(c2=O)Cc2cc3ccccc3nc2-1.[Na+] [WQ1001]
[1]
  solubility: > 10000 µg/mL
[2]
  Resistance index: 6
[3]; SD rats, 20 mg/kg HM 910 i.v. bolus, 0.083 hr, 20 mg/kg
  HM 910 Plasma: 56652 ng/mL and 31029 ng/mL and 37348 ng/mL and 56722 ng/mL and 45165 ng/mL and 21141 ng/mL
[3]; SD rats, 20 mg/kg HM 910 i.v. bolus, 0.25 hr, 20 mg/kg
  HM 910 Plasma: 13690 ng/mL and 9484 ng/mL and 7271 ng/mL and 16294 ng/mL and 6761 ng/mL and 5639 ng/mL
[3]; SD rats, 20 mg/kg HM 910 i.v. bolus, 0.5 hr, 20 mg/kg
  HM 910 Plasma: 2530 ng/mL and 1425 ng/mL and 1633 ng/mL and 4582 ng/mL and 1536 ng/mL and 1628 ng/mL
[3]; SD rats, 20 mg/kg HM 910 i.v. bolus, 0.75 hr, 20 mg/kg
  HM 910 Plasma: 919 ng/mL and 574 ng/mL and 539 ng/mL and 1578 ng/mL and 617 ng/mL and 607 ng/mL
[3]; SD rats, 20 mg/kg HM 910 i.v. bolus, 1 hr, 20 mg/kg
  HM 910 Plasma: 499 ng/mL and 259 ng/mL and 240 ng/mL (2×) and 668 ng/mL and 256 ng/mL
[3]; SD rats, 20 mg/kg HM 910 i.v. bolus, 1.5 hr, 20 mg/kg
  HM 910 Plasma: 97.2 ng/mL and 78.0 ng/mL and 45.2 ng/mL and 162 ng/mL and 59.0 ng/mL and 96.4 ng/mL
[3]; SD rats, 20 mg/kg HM 910 i.v. bolus, 2 hr, 20 mg/kg
  HM 910 Plasma: 18.3 ng/mL and 25.7 ng/mL and 51.5 ng/mL and 39.5 ng/mL and 20.8 ng/mL and 53.7 ng/mL
[3]; [5]
  HM 910 Plasma: 28.2 ng/mL and 17.2 ng/mL and 18.4 ng/mL and 11.0 ng/mL
  HM 910 Plasma (ng/mL): BLQ
[3]; SD rats, 20 mg/kg HM 910 i.v. bolus, 3 hr
  HM 910 Plasma (ng/mL): BLQ
[3]; SD rats, 20 mg/kg HM 910 i.v. bolus, 4 hr
  HM 910 Plasma (ng/mL): BLQ
[3]; SD rats, 20 mg/kg i.v. bolus
  Fate of the tested drug after injection into the rats: degraded and the releases camptothecin
[3]; both sexes, Sprague-Dawley (SD), rat, plasma, iv, 20 mg/kg, 20 mg/kg HM 910 i.v. bolus, 0.083 hr, mean of rats
  concentration at 0.083 h: 41300 ng/mL
[3]; both sexes, Sprague-Dawley (SD), rat, plasma, iv, 20 mg/kg, 20 mg/kg HM 910 i.v. bolus, 0.25 hr, mean of rats
  concentration at 0.25 h: 9860 ng/mL
[3]; both sexes, Sprague-Dawley (SD), rat, plasma, iv, 20 mg/kg, 20 mg/kg HM 910 i.v. bolus, 0.5 hr, mean of rats
  concentration at 0.5 h: 2220 ng/mL
[3]; both sexes, Sprague-Dawley (SD), rat, plasma, iv, 20 mg/kg, 20 mg/kg HM 910 i.v. bolus, 0.75 hr, mean of rats
  concentration at 0.75 h: 806 ng/mL
[3]; both sexes, Sprague-Dawley (SD), rat, plasma, iv, 20 mg/kg, 20 mg/kg HM 910 i.v. bolus, 1 hr, mean of rats
  concentration at 1 h: 360 ng/mL
[3]; both sexes, Sprague-Dawley (SD), rat, plasma, iv, 20 mg/kg, 20 mg/kg HM 910 i.v. bolus, 1.5 hr, mean of rats
  concentration at 1.5 h: 89.6 ng/mL
[3]; both sexes, Sprague-Dawley (SD), rat, plasma, iv, 20 mg/kg, 20 mg/kg HM 910 i.v. bolus, 2 hr, mean of rats
  concentration at 2 h: 34.9 ng/mL
[3]; both sexes, Sprague-Dawley (SD), rat, plasma, iv, 20 mg/kg, 20 mg/kg HM 910 i.v. bolus, 2.5 hr, mean of rats
  concentration at 2.5 h: 18.7 ng/mL
[4]; 25 mg/kg
  anti-tumor effect on NCI-H929 xenografts in nude mice (in words): significant anti-tumor effect
[4]; HM910 l-dose 18 mg/kg
  IR By RTV %: 66.5%
  IR By TW %: 72.7%
  RTV (X ± SD): 13.5 ± 11.0
  TW (X ± SD, g): 0.41 ± 0.34 g
  Bw (X ± SD, g) end: 19.2 ± 0.9 g
  TV (X ± SD, mm^3) End: 653.0 ± 560.4 mm^3
  Bw (X ± SD, g) initial: 21.0 ± 1.6 g
  TV (X ± SD, mm^3) initial: 48.6 ± 4.9 mm^3
[4]; HM910 m-dose 25 mg/kg
  IR By RTV %: 75.7%
  IR By TW %: 82.0%
  RTV (X ± SD): 9.80 ± 11.6
  TW (X ± SD, g): 0.27 ± 0.35 g
  Bw (X ± SD, g) end: 18.5 ± 0.7 g
  TV (X ± SD, mm^3) End: 480.1 ± 570.6 mm^3
  Bw (X ± SD, g) initial: 17.3 ± 0.7 g
  TV (X ± SD, mm^3) initial: 48.2 ± 7.8 mm^3
[4]; HM910 h-dose 35 mg/kg
  IR By RTV %: 86.1%
  IR By TW %: 88.2%
  RTV (X ± SD): 5.61 ± 9.74
  TW (X ± SD, g): 0.18 ± 0.36 g
  Bw (X ± SD, g) end: 18.8 ± 0.6 g
  TV (X ± SD, mm^3) End: 272.3 ± 483.1 mm^3
  Bw (X ± SD, g) initial: 17.3 ± 0.7 g
  TV (X ± SD, mm^3) initial: 46.9 ± 8.8 mm^3
[4]; high dose, 35 mg/kg
  anti-tumor effect on NCI-H929 xenografts in nude mice (in words): significant anti-tumor effect
[4]; low-dose group, 18 mg/kg
  anti-tumor effect on NCI-H929 xenografts in nude mice (in words): significant anti-tumor effect
